Where a name gives a salt, the structure may show the parent alone.
Legend:
ddY strain male mice = experiment: Acute toxicity (Minimum Lethal Dose); assay type: in vivo
Description: The test compound was orally and intraperitoneally administered to ddY strain male mice weighing 20 to 25 g. MLD (Minimum Lethal Dose) was determined by observing the mortality for […] after the administration.

[1] = test system: passive Schultz-Dale reaction; experiment: Effect on passive Schultz-Dale reaction (broncho-dilative activity), sensitized tracheal strips contracted by antigen; parameters: species or system male Hartley guinea pigs; details: guinea pig tracheal zig-zag strips, 37° C., antigen egg white albumin 1 μg/ml; read-out: Passive Schultz-Dale reaction IC50 (concentration of 50% relaxation rate)
Description: d) Effect on passive Schultz-Dale reaction (broncho-dilative activity)
Male Hartley guinea pigs weighing 350 to 500 g were passively sensitized by intraperitoneal injection of rabbit anti-OA serum prepared in advance by the method of Koda et al. [Folia Pharmacol., Japon 66, 237, (1970)]. After 24 hours, the guinea pigs were stunned and exsanguinated, and then tracheae were removed. The zig-zag strips of the tracheae were prepared by the method of Emmerson and Mackay [J. Pharm. Pharmacol., 31, 798, (1979)]. The strips were suspended in Krebs-Henseleit solution at 37° C. under aeration of a mixed gas of 95% oxygen and 5% carbon dioxide, and equilibrated for one hour. Then, antigen (egg white albumin) was introduced in the solution (final concentration; 1 μg/ml), and the contraction was measured by isotonictransducer (TD-112s, made by Nihon Kohden K.K., Japan) and recorded on a recorder (Type 3066, made by Yokogawa-Hokushin Denki, K.K. Japan). After the contraction curves reached a plateau, the test compounds were successively added in order to get cumulative concentration-relaxation curves. The concentration of 50% relaxation rate (IC50) was calculated from the regression line, which was obtained from the cumulative concentration-relaxation curves.

[2] = test system: platelet activating factor (PAF)-induced mortality; experiment: Inhibition effect on platelet activating factor (PAF)-induced mortality; assay type: in vivo, male dd mice; details: Mus musculus, po, PAF 40 μg/kg i.v., 3 h, n = 10, control group survival 0-20%, read-out: Survival rate of test compound-administered group
Description: e) Inhibition effect on platelet activating factor (PAF)-induced mortality
The experiment was carried out by a minor modification of a known method [Br. J. Pharmacol., 79, 595 (1983)]. Groups each consisting of 10 male dd mice (weighing 28 to 32 g) were used, and 50 or 100 mg/kg of the test compound or a saline (control) was orally administered. One hour after the administration of test compound, 40 μg/kg of PAF (manufactured by Avanti Polar Lipids Co., Ltd.) was intravenously administered. Three hours after PAF injection, the mortality of the animals was observed.

[3] = test system: carrageenin-induced paw edema; experiment: Effect on carrageenin-induced paw edema; assay type: in vivo, male Wistar rats; details: Rattus norvegicus; p.o., 3 hours after carrageenin; read-out: Suppression rate for paw swelling, carrageenin-induced edema
Description: a) Effect on carrageenin-induced paw edema
Male Wistar rats weighing 150 to 160 g (n=3-5) were used in the experiment. After the right hind paw volume was measured with the plethysmograph (TK-101; Unicom Co., Ltd.), the test compound (25, 50 or 100 mg/kg) was orally administered. After one hour, 0.1 ml of 1% carrageenin (λ-carrageenin; PICNIN-A®, Zushi Kagaku Co., Ltd.) was subcutaneously injected into the right hind paw footpad. Three hours after the injection of carrageenin, the right hind paw volume was measured and the swelling rate was determined by the following equation 1. [formula] Vt: the right hind paw volume measured 3 hours after the injection of carrageenin
Vo: the right hind paw volume measured prior to the injection of carrageenin
The suppression rate was calculated by the following equation 2. [formula] Swt: the swelling rate of the group administered with the test compound Swc: the swelling rate of the control group administered with physiological saline solution

| SMILES | MLD (Minimum Lethal Dose) i.p. (ddY strain male mice) [mg/kg] | MLD (Minimum Lethal Dose) p.o. (ddY strain male mice) [mg/kg] | IC50 [1] [µM] | responders at 100 mg/kg [2] [%] | inhibition in vivo at 100 mg/kg [3] [%] |
| --- | --- | --- | --- | --- | --- |
| Cn1cnc2c(=O)n(-c3ccccc3)c3ncccc3c21 [Compound 2, 1-Methyl-5-phenyl-1H-imidazo[4,5-c][1,8]naphthyridin-4(5H)-one] | > 100 | > 300 |  |  |  |
| O=c1c2[nH]cnc2c2cccnc2n1-c1ccccc1 [Compound 3, 5-Phenyl-3H-imidazo[4,5-c][1,8]naphthyridin-4(5H)-one] | > 100 | > 300 | 0.77 | 70 |  |
| Cn1cnc2c3cccnc3n(-c3ccccc3)c(=O)c21 [Compound 4, 3-Methyl-5-phenyl-3H-imidazo[4,5-c][1,8]naphthyridin-4(5H)-one] | > 50 | > 50 | 0.24 |  |  |
| CCn1cnc2c(=O)n(-c3ccccc3)c3ncccc3c21 [Compound 5, 1-Ethyl-5-phenyl-1H-imidazo[4,5-c][1,8]naphthyridin-4(5H)-one] |  |  | > 10 | 80 | 20.6 |
| CC(C)n1cnc2c(=O)n(-c3ccccc3)c3ncccc3c21 [Compound 6, 1-Isopropyl-5-phenyl-1H-imidazo[4,5-c][1,8]naphthyridin-4(5H)-one] |  |  | > 10 | 70 | 22 |
| O=c1c2ncn(Cc3ccccc3)c2c2cccnc2n1-c1ccccc1 [Compound 7, 1-Benzyl-5-phenyl-1H-imidazo[4,5-c][1,8]naphthyridin-4(5H)-one] |  |  | > 10 | 90 |  |
| O=c1c2[nH]c(-c3ccccc3)nc2c2cccnc2n1-c1ccccc1 [Compound 19, 2,5-Diphenyl-3H-imidazo[4,5-c][1,8]naphthyridin-4(5H)-one] |  |  | > 10 | 60 | 1.7 |
| O=c1c2[nH]c(S)nc2c2cccnc2n1-c1ccccc1 [Compound 20, 2-Mercapto-5-phenyl-3H-imidazo[4,5-c][1,8]naphthyridin-4(5H)-one] |  |  | > 10 | 30 | 6.8 |
| CCOC(=O)Cn1cnc2c3cccnc3n(-c3ccccc3)c(=O)c21 [Compound 32, 3-Ethoxycarbonylmethyl-5-phenyl-3H-imidazo[4,5-c][1,8]naphthyridin-4(5H)-one] | > 100 | > 300 | 0.68 | 0 |  |
| CCCC(CCC)n1cnc2c3cccnc3n(-c3ccccc3)c(=O)c21 [Compound 35, 3-(1-Propylbutyl)-5-phenyl-3H-imidazo[4,5-c][1,8]naphthyridin-4(5H)-one] | > 100 | > 300 |  | 70 |  |
| O=c1c2c(ncn2CC=Cc2ccccc2)c2cccnc2n1-c1ccccc1 [Compound 36, 3-Cinnamyl-5-phenyl-3H-imidazo[4,5-c][1,8]naphthyridin-4(5H)-one] | > 100 | > 300 |  | 20 |  |
| O=c1c2c(ncn2C(c2ccccc2)c2ccccc2)c2cccnc2n1-c1ccccc1 [Compound 38, 3-(3-Diphenylmethyl)-5-phenyl-3H-imidazo-[4,5-c][1,8]naphthyridin-4(5H)-one] |  |  |  | 30 |  |
| Cc1ccc(C)c(Cn2cnc3c4cccnc4n(-c4ccccc4)c(=O)c32)c1 [Compound 39, 3-(2,5-Dimethylphenyl)methyl-5-phenyl-3H-imidazo[4,5-c][1,8]naphthyridin-4(5H)-one] |  |  |  | 0 |  |
| O=c1c2c(ncn2Cc2ccccc2Cl)c2cccnc2n1-c1ccccc1 [Compound 48, 3-(2-Chlorophenyl)methyl-5-phenyl-3H-imidazo[4,5-c][1,8]naphthyridin-4(5H)-one] |  |  | 4.9 | 10 |  |
| O=c1c2c(ncn2Cc2cccc(Br)c2)c2cccnc2n1-c1ccccc1 [Compound 49, 3-(3-Bromophenyl)methyl-5-phenyl-3H-imidazo[4,5-c][1,8]naphthyridin-4(5H)-one] |  |  |  | 0 |  |
| COC(=O)c1ccc(Cn2cnc3c4cccnc4n(-c4ccccc4)c(=O)c32)cc1 [Compound 50, 3-(4-Methoxycarbonylphenyl)methyl-5-phenyl-3H-imidazo[4,5-c][1,8]naphthyridin-4(5H)-one] |  |  |  | 0 |  |
| O=c1c2c(ncn2CCCO)c2cccnc2n1-c1ccccc1 [Compound 51, 3-(3-Hydroxypropyl)-5-phenyl-3H-imidazo[4,5-c][1,8]naphthyridin-4(5H)-one] |  |  |  | 80 |  |
| CC(O)Cn1cnc2c3cccnc3n(-c3ccccc3)c(=O)c21 (centres unmarked) [Compound 52, 3-(2-Hydroxypropyl)-5-phenyl-3H-imidazo[4,5-c][1,8]naphthyridin-4(5H)-one] |  |  |  | 100 |  |
| O=c1c2c(ncn2Cc2ccco2)c2cccnc2n1-c1ccccc1 [Compound 53, 3-Furfuryl-5-phenyl-3H-imidazo[4,5-c][1,8]naphthyridin-4(5H)-one] |  |  |  | 90 |  |
| O=c1c2c(ncn2Cc2cccnc2)c2cccnc2n1-c1ccccc1 [Compound 54, 5-Phenyl-3-(3-pyridyl)methyl-3H-imidazo[4,5-c][1,8]naphthyridin-4(5H)-one] |  |  |  | 90 |  |
| COc1ccc(-n2c(=O)c3c(ncn3Cc3ccccc3)c3cccnc32)cc1 [Compound 55, 5-(4-Methoxyphenyl)-3-benzyl-3H-imidazo[4,5-c][1,8]naphthyridin-4(5H)-one] |  |  |  | 0 |  |
| COc1cccc(-n2c(=O)c3c(ncn3Cc3ccccc3)c3cccnc32)c1 [Compound 56, 5-(3-Methoxyphenyl)-3-benzyl-3H-imidazo[4,5-c][1,8]naphthyridin-4(5H)-one] |  |  |  | 40 |  |
| Cc1ccc(-n2c(=O)c3c(ncn3Cc3ccccc3)c3cccnc32)cc1 [Compound 57, 5-(4-Methylphenyl)-3-benzyl-3H-imidazo[4,5-c][1,8]naphthyridin-4(5H)-one] |  |  |  | 0 |  |
| Cc1nc2c3cccnc3n(-c3ccccc3)c(=O)c2n1Cc1ccccc1 [Compound 60, 2-Methyl-5-phenyl-3-benzyl-3H-imidazo[4,5-c][1,8]-naphthyridin-4(5H)-one] |  |  |  | 20 |  |
| O=c1c2c(nc(-c3ccccc3)n2Cc2ccccc2)c2cccnc2n1-c1ccccc1 [Compound 61, 2,5-Diphenyl-3-benzyl-3H-imidazo[4,5-c][1,8]naphthyridin-4(5H)-one] |  |  |  | 10 |  |
| COc1ccc(-n2c(=O)c3c(ncn3CC(C)C)c3cccnc32)cc1 [Compound 62, 3-Isobutyl-5-(4-methoxyphenyl)-3H-imidazo[4,5-c][1,8]naphthyridin-4(5H)-one] |  |  |  | 90 |  |
| Cc1ccc(-n2c(=O)c3c(ncn3CC(C)C)c3cccnc32)cc1 [Compound 64, 3-Isobutyl-5-(4-methylphenyl)-3H-imidazo[4,5-c][1,8]naphthyridin-4(5H)-one] |  |  |  | 60 |  |
| O=c1c2c(ncn2CCCN2CCOCC2)c2cccnc2n1-c1ccccc1 [Compound 66 Sa, 3-(3-Morpholino)propyl-5-phenyl-3H-imidazo[4,5-c][1,8]naphthyridin-4(5H)-one hydrochloride] | > 100 | > 300 |  | 70 |  |
| CCN(CC)CCCn1cnc2c3cccnc3n(-c3ccccc3)c(=O)c21 [Compound 67 Sa, 3-(3-Diethylamino)propyl-5-phenyl-3H-imidazo[4,5-c][1,8]naphthyridin-4(5H)-one hydrochloride] | > 100 | > 300 |  | 30 |  |

— patent US5468756A, “Imidazonaphthyridine derivatives” (Kyowa Hakko Kogyo Co., Ltd., priority 1990, dated 1995)
